Laboratory results: article PMC9574862, “Designing Soluble PROTACs: Strategies and Preliminary Guidelines” (Journal of Medicinal Chemistry, 2022)

Experiments:
[1] = log kw^IAM – clog kw^IAM
Description: Since polarity is a molecular property often related to solubility,[13] experimental descriptors of polarity (Δ log kw^IAM and EPSA) were also determined. Introduced by Grumetto in 2012,[30] Δ log kw^IAM is the difference between the experimental log kw^IAM and the value expected for neutral analytes with a zero value of polar surface area (which depends on the experimental measurement of the n-octanol partition coefficient[31]). EPSA quantifies the polarity of a molecule using a supercritical fluid chromatographic (SFC) method.[32]

[2] = Thermodynamic solubility, shake-flask, 10 mM PBS (0.15 M KCl) pH 7, 25 °C, 1 h, HPLC-UV; conditions: pH 7, 25 °C; for solubility at 1 h: 25 °C, pH 7, aqueous buffer, thermodynamic from solid
Description: Its measurement only requires an initial DMSO stock solution which is precipitated by the addition of an aqueous phase.[23],[24] Here, we measured thermodynamic solubility, often determined in late lead optimization, which efficiently considers the solubility value when the equilibrium with the stable phase or polymorph has been reached.
Solubility was determined in 10 mM PBS (0.15 M KCl) at pH 7, 25 °C. A 1–2 mg sample of each molecule was added to the same quantity (1–2 mL) of the mentioned buffer to obtain 1 mg/mL solutions in the vial. Samples were then submitted to 25 °C and magnetic stirring (500 rpm) for 1 h. After this period, solutions or suspensions were filtered through the 0.45 μm membrane pore and diluted with buffer, 10 mM PBS (0.15 M KCl). The amount of dissolved compound in each sample was then quantified, in duplicate, via HPLC using ultraviolet (UV) spectrometric detection.
Variable volumes of pure DMSO (0–100 μL) were added separately to small and defined (1 mg) quantities of each compound to obtain clear solutions. […] Afterward, 5% DMSO 10 mM PBS (0.15 M KCl) was added until the suspensions or precipitations were redissolved, to render clear solutions. As soon as solutions were obtained, they were used as mother solutions for the performance of 5–10 point calibration curves with serial buffer dilutions (1:1; v/v) 5% DMSO 10 mM PBS (0.15 M KCl). Calibration points were then measured via HPLC-UV.
The mobile phase consisted of a solution of acetonitrile (ACN) and 20 mM ammonium acetate buffer (AAB), pH 7, freshly prepared. A 10 μL volume of each sample (volume of injection) was injected at an isocratic 1 mL/min flow rate analyzed at 30 °C (oven temperature). Solubility determination of each compound required a specific HPLC method. Settings are collected in Table S11 (PROTACs) and Table S10 (building blocks).
Injections were performed in duplicate for each molecule’s calibration points. The retention time and area under the curve (AUC in absorbance units) were collected, and the average was calculated. The AUC average (y-axis) was plotted versus theoretical concentration (mg/mL; x-axis) to obtain a calibration curve for each molecule. Correlation equations and coefficients (R^2) were efficiently calculated for each compound (Table S12 for PROTACs and Table S10 for building blocks). Samples were then injected in duplicate, and the AUC averages and standard deviations were calculated. Finally, the absorbance averages were interpolated into the corresponding equations, extracting the final solubility values with their standard deviation, after dilution factor corrections.

physchem = conditions: for chromatographic logD: pH 7
Description: PROTAC experimental solubility was first correlated with lipophilicity descriptors (log P is implemented in the general solubility equation (GSE)[27]). As described by some of us,[16] BRlogD represents a validated,[28] very useful and straightforward chromatographic descriptor for the logarithm of the distribution coefficient in the n-octanol/water system (log D) of neutral and cationic bRo5 molecules.
The mobile phase consisted of an isocratic solution of 20 mM ammonium acetate (pH 7.0) and acetonitrile, 40–60%, respectively (v/v).[16] Samples were dissolved in buffer/ACN and injected into the XBridge column at a flow rate of 1.0 mL/min at 30 °C. Retention times were determined in duplicate, and the dead time, t0, was recorded as the baseline disturbance.

[3] = pH 7.0, extrapolated to 0% acetonitrile
Description: The logarithm of the capacity factor of an IAM column system, extrapolated at 100% water (log kw^IAM), is also an experimental descriptor of the lipophilicity of drugs since it mimics the interaction between the polar heads of the membrane phospholipids and the drug in solution.[29]
The mobile phase consisted of a solution of 20 mM ammonium acetate (pH 7.0) in a mixture with acetonitrile at various percentages (from 10 to 50%, v/v). Samples were dissolved in buffer/ACN and injected into the previously mentioned IAM column at a flow rate of 1.0 mL/min at 30 °C. Chromatographic retention data were determined in duplicate for the different mobile phase conditions. Data were recorded as log k′ (capacity factor k′ = [tR – t0]/t0), where tR and t0 are the retention times of the sample and a nonretained molecule (citric acid), respectively. Thus, log kw^IAM values were calculated by an extrapolation method of the experimental equation, at 0% acetonitrile. Moreover, five gold standard compounds (caffeine, carbamazepine, ketoprofen, theobromine, and toluene) were checked daily.

[4] = pKa determination by potentiometry (SiriusT3); conditions: for Ionization state at pH 7: experimental
Description: Solids were weighed with a Sartorius Entris224-1S Analytical (www.sartorius.com). pKa values were measured with a SiriusT3 instrument (Sirius Analytical Instruments) equipped with a reference pH electrode (Ag/AgCl double junction) and a turbidity detector. Ultrasonic cleaner, obtained from VWR Chemicals (www.vwr.com), and an IKA VORTEX 3 (www.ika.com) were used to avoid precipitation in the calibration points. Stirring and heating were provided by magnetic and heating plates C-MAG MS 7 and IKA ETS-D5, respectively (www.ika.com). Moreover, pH was measured with a Eutech pH Meter 2700 (www.fishersci.com). Analyses were carried out by high-performance liquid chromatography (HPLC; DIONEX Ultimate 3000, Thermo Scientific Inc.) provided with an RS diode array and Chromeleon 7.2.10 software (www.thermofisher.com). HPLC columns IAM.PC.DD2 (300 Å, 10 μm, 10 cm × 4.6 mm) from REGIS and XBridge Shield RP18 (130 Å, 5 μm, 5 cm × 4.6 mm) from Waters (www.waters.com) were used. Ergonomic high-performance single-channel variable volume pipettors, HPLC 1.5 mL vials, 0.1 mL microinsert, and PP 9 mm screw caps were obtained from VWR Signature. EPSA analyses were performed by supercritical fluid chromatography (SFC; JASCO SFC-4000, Jasco Europe srl), provided with a diode array and ChromNAV 2.04.00 software (www.jascoweb.com). The SFC column Chirex 3014 (S)-VAL and (R)-NEA (100 Å, 5 μm, 25 cm × 4.6 mm) from Phenomenex was used.
Acidic dissociation constants of pomalidomide, S,R,S-AHPC HCl, and S,S,S-AHPC 2HCl were measured potentiometrically. Titrations were performed to 0.15 M KCl sample solutions under a nitrogen atmosphere at 25 ± 1 °C. Moreover, standardized 0.5 M KOH and 0.5 M HCl were used as titration reagents (solutions were prepared from Titrisol (Merck) concentrated solutions).[45]

[5] = Exp.LogS, PROTAC pairs and building blocks

Row | Compound | ΔLog kw IAM [1] | solubility at 1 h [2, 5] [µM] | chromatographic logD (physchem) | Log kw IAM [3] | solubility at 1 h ([2]; Solubility average, thermodynamic, shake-flask, 1 h) [µM] | solubility at 1 h ([2]; Solubility log S, Table S-3) [µM] | solubility at 1 h ([2]; Solubility, Table S-3) [µg/mL] | Classification (GSK guidelines) ([2]; solubility class) | Experimental pKa (2-12) ([4]; 0.15 M KCl, 25 °C, (b) = basic) | Ionization state at pH 7 [4] | Ionization state at pH 7 ([4]; listed as pomalidomide) | BRlogD (physchem; pH 7.0)
1 | COc1cc(C(=O)NC2CCN(C)CC2)ccc1Nc1ncc(C(F)(F)F)c(Oc2cccc3c2C(=O)CC3)n1 [BI-4464] | 1.23 | 64.6 | 1.79 | 1.84 | – | – | – | – | – | – | – | –
2 | Cc1ncsc1-c1ccc(CNC(=O)[C@@H]2C[C@H](O)CN2C(=O)[C@@H](NC(=O)COCCOCCOCCOCCOCCOCC(=O)N[C@H](C(=O)N2C[C@@H](O)C[C@H]2C(=O)NCc2ccc(-c3scnc3C)cc2)C(C)(C)C)C(C)(C)C)cc1 [CMP98] | high | – | – | – | 331 | 331 | 390 | High (> 200 μM) (High (> 200 μM)) | – | – | – | –
3 | CC(=O)N1c2ccc(-c3ccc(C(=O)O)cc3)cc2[C@H](Nc2ccc(Cl)cc2)C[C@@H]1C [I-BET726] | 2.64 | 60.3 | 0.3 | 1.88 | – | – | – | – | – | – | – | –
4 | Cc1sc2c(c1C)C(c1ccc(Cl)cc1)=N[C@@H](CC(=O)O)c1nnc(C)n1-2 [JQ1 carboxylic acid] | 1.76 | > 2510 | 0.08 | 0.80 | – | – | – | – | – | – | – | –
5 | Nc1cccc2c1C(=O)N(C1CCC(=O)NC1=O)C2=O (centres unmarked) [Pomalidomide] | 0.64 | 36.3 | – | 0.91 | – | – | – | – | Not ionizable | Neutral | not ionized | 1.41
6 | Cc1ncsc1-c1ccc(CNC(=O)[C@@H]2C[C@@H](O)CN2C(=O)[C@@H](N)C(C)(C)C)cc1.Cl [S,R,S-AHPC HCl] | 2.34 | 2090 | 0.56 | 1.83 | – | – | – | – | – | – | – | –
7 | Cc1ncsc1-c1ccc(CNC(=O)[C@@H]2C[C@H](O)CN2C(=O)[C@@H](N)C(C)(C)C)cc1.Cl.Cl [S,S,S-AHPC 2HCl] | 2.05 | 2040 | 0.91 | 1.86 | – | – | – | – | – | – | – | –
